Molecular target: T1, hormone sensitive lipase (HSL) (Homo sapiens, UniProt Q05469)
T1 sequence (Q05469 1-1076): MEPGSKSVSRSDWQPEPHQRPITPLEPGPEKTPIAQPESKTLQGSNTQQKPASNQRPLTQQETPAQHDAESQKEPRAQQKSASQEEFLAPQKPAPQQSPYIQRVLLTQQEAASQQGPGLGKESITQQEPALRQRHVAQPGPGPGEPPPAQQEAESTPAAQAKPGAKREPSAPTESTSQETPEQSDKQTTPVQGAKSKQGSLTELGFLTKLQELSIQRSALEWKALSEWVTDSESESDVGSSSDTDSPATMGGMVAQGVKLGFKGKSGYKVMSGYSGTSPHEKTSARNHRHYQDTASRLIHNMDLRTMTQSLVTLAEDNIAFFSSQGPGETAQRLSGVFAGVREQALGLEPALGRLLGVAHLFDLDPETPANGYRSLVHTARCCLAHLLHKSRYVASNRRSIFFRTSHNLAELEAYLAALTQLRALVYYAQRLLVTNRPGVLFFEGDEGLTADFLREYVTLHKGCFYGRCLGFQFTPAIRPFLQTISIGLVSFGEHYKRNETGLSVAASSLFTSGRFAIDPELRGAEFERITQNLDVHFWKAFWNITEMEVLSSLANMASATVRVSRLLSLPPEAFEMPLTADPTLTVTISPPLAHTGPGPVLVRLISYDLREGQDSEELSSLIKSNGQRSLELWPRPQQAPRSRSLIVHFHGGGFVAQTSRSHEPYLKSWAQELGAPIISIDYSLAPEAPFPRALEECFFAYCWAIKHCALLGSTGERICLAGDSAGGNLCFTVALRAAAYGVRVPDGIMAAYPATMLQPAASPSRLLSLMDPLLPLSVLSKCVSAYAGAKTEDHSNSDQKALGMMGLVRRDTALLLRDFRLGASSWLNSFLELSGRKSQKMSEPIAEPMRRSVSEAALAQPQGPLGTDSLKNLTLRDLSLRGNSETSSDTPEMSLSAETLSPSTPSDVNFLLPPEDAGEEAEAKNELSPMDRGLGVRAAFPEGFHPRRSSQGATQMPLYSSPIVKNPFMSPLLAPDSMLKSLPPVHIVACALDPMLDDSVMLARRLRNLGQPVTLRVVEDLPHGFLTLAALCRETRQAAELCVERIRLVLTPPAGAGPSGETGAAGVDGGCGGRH
Experiment: 3190.1: percent inhibition of hormone sensitive lipase at 10 μM (fluorochrome-labeled triacylglyceride emulsion, HSL_FL)
Assay type: biochemical
Conditions: 10 μM sample concentration; % activity relative to non-inhibited sample (no compound); 30 min pre-incubation at 25° C., 120 min at 37° C.
Description: Materials. The Hormone-sensitive lipase was provided by Dr. Cecilia Holm, from Lund University Sweden or produced and purified by Novo Nordisk (NN) using the reagents and protocols used by Dr. Holm. The substrates used are: ^3H-labeled triolein (TO) from Amersham, Buckinghamshire, U.K. cat No. TRA191; 5-20 Ci/mmol dissolved in toluene, triolein (Sigma, Cat. No. T-1740), fluorochrome-labeled triacylglyceride (cis-octadec-9-enoic acid 2-[12-(7-nitrobenzo[1,2,5]oxadiazol-4-ylamino)dodecanoyloxy]-1-cis-octadec-9-enoyloxymethyl-ethyl ester) prepared by Novo Nordisk (NN) by conventional methods, and 1,3-(di[^3H]-stearin), 2-(PEG-Biotin)glycerol prepared in collaboration with Amersham Pharmacia Biotech, UK and described in WO 01/073442. Phosphatidyl choline (PC) and phosphatidyl inositol (PI) are from Sigma (St Luis Mo. cat. Nos. P-3556 and P-5954 respectively). All other reagents are of commercial grade and obtained from various commercial sources.
3190.1: Assay for determination of percent inhibition of hormone sensitive lipase by compound at 10 μM sample concentration.
A lipid emulsion with fluorochrome-labeled triacylglyceride and phospholipid is used as substrate with a standard concentration of highly purified HSL (12 μg/mL initial concentration corresponding to 600 ng/mL final concentration). BSA is added as product acceptor. The transfer of the fluorochrome from the lipid phase to the water (BSA) phase changes the fluorescent properties of the fluorochrome. The changes can be monitored on a fluorimeter with an excitation wavelength of 450 nm and an emission wavelength of 545 nm.
Compound and HSL (20 μL compound, 10 μL enzyme and 70 μL PED-BSA buffer) is pre-incubated for 30 min at 25° C. before addition of substrate (100 μL). Amount of formed product is measured after 120 min incubation at 37° C.
Results are given as percent activity relative to a non-inhibited sample (no compound).

| Compound | activity at 10 µM |
| --- | --- |
| CN(C(=O)Oc1ccc(CCOc2ccncc2)cc1)c1ccccc1 [Example 1, Methyl-phenyl-carbamic acid 4-[2-(pyridin-4-yloxy)-ethyl]-phenyl ester] | 1% |
| CN(C(=O)Oc1ccc(CSc2ncc[nH]2)cc1)c1ccccc1 [Example 2, Methyl-phenyl-carbamic acid 4-(1H-imidazol-2-ylsulfanylmethyl)-phenyl ester] | 1% |
| CN(C(=O)Oc1ccc(CCSc2ncc[nH]2)cc1)c1ccccc1 [Example 3, Methyl-phenyl-carbamic acid 4-[2-(1H-imidazol-2-ylsulfanyl)-ethyl]-phenyl ester] | 1% |
| Cc1cccc(Cc2ccc(OC(=O)N(C)c3ccccc3)cc2)n1 [Example 4, Methyl-phenyl-carbamic acid 4-(6-methyl-pyridin-2-ylmethyl)-phenyl ester] | 5% |

— patent US20060148860A1, “Substituted p-phenyl carbamates” (Novo Nordisk A/S, priority 2003, published 2006)
